Source: PubChem BioAssay (NCI)
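Interpolation was linear, between the two tested concentrations surrounding the appropriate level; five concentrations were tested over 48 hours in 96-well plates. The concentration for full growth arrest is given as TGI.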

Columns and labels:
Test in all cases: NCI tumour cell line growth inhibition, 48 h
SNB-19 CNS = system: SNB-19 CNS
SK-MEL-5 melanoma = system: SK-MEL-5 melanoma
SK-MEL-2 melanoma = system: SK-MEL-2 melanoma
UO-31 renal = system: UO-31 renal
OVCAR-3 ovarian = system: OVCAR-3 ovarian
HOP-62 NSCLC = system: HOP-62 NSCLC
K-562 leukemia = system: K-562 leukemia
KM12 colon = system: KM12 colon
NCI-H226 lung = system: NCI-H226 lung
HCT-15 colon = system: HCT-15 colon
PC-3 prostate = system: PC-3 prostate
OVCAR-8 ovarian = system: OVCAR-8 ovarian
UACC-257 melanoma = system: UACC-257 melanoma

Work on Cc1nc2cccc(F)c2c(=O)n1-c1nnc(C2CC2)s1 yielded a TGI (SNB-19 CNS) of over 10 µM, a TGI (SK-MEL-5 melanoma) of over 10 µM and a TGI (SK-MEL-2 melanoma) of over 10 µM. The TGI (UO-31 renal) was over 10 µM, the TGI (OVCAR-3 ovarian) was over 10 µM and the TGI (HOP-62 NSCLC) was over 10 µM. It also gave a TGI (K-562 leukemia) of over 10 µM, a TGI (KM12 colon) of over 10 µM and a TGI (NCI-H226 lung) of over 10 µM. For the same compound, the TGI (HCT-15 colon) was over 10 µM, the TGI (PC-3 prostate) was over 10 µM and the TGI (OVCAR-8 ovarian) was over 10 µM. The TGI (UACC-257 melanoma) was over 10 µM.

With CO/C=C(/C(=O)OC)c1ccccc1[C@H]1C[C@@H]1c1ccccc1 the TGI (SNB-19 CNS) was over 100 µM, the TGI (SK-MEL-5 melanoma) was 20.8 µM and the TGI (SK-MEL-2 melanoma) was 34.8 µM. The TGI (UO-31 renal) was over 100 µM, the TGI (OVCAR-3 ovarian) was 67.3 µM and the TGI (HOP-62 NSCLC) was over 100 µM. The TGI (K-562 leukemia) was over 100 µM, the TGI (KM12 colon) was 49 µM and the TGI (NCI-H226 lung) was 74.4 µM. For the same compound, the TGI (HCT-15 colon) was 86.8 µM, the TGI (PC-3 prostate) was over 100 µM and the TGI (OVCAR-8 ovarian) was over 100 µM. The TGI (UACC-257 melanoma) was 41.3 µM.

CCOC(=O)N1c2c(c3ccccc3n2C(=O)OCC)C(=O)C(OC)N1C(=O)OCC (stereo not given) showed a TGI (SNB-19 CNS) of over 100 µM, a TGI (SK-MEL-5 melanoma) of 60.7 µM and a TGI (SK-MEL-2 melanoma) of 36.4 µM. The TGI (UO-31 renal) was over 100 µM, the TGI (OVCAR-3 ovarian) was over 100 µM and the TGI (HOP-62 NSCLC) was over 100 µM. For the same compound, the TGI (K-562 leukemia) was over 100 µM, the TGI (KM12 colon) was 38.9 µM and the TGI (NCI-H226 lung) was over 100 µM. The TGI (HCT-15 colon) was 79 µM, the TGI (PC-3 prostate) was 80.5 µM and the TGI (OVCAR-8 ovarian) was over 100 µM. The TGI (UACC-257 melanoma) was over 100 µM.

O=C(OCC(OC(=O)c1ccccc1)C1CC(C(O)C2CCCCC2)C(=O)O1)c1ccccc1 (stereo not given) was tested, and the TGI (SNB-19 CNS) was over 100 µM, the TGI (SK-MEL-5 melanoma) was 32.2 µM and the TGI (SK-MEL-2 melanoma) was over 100 µM. It also gave a TGI (UO-31 renal) of over 100 µM, a TGI (OVCAR-3 ovarian) of over 100 µM and a TGI (HOP-62 NSCLC) of over 100 µM. For the same compound, the TGI (K-562 leukemia) was 50.5 µM, the TGI (KM12 colon) was over 100 µM and the TGI (NCI-H226 lung) was over 100 µM. The TGI (HCT-15 colon) was over 100 µM, the TGI (PC-3 prostate) was over 100 µM and the TGI (OVCAR-8 ovarian) was over 100 µM. It also gave a TGI (UACC-257 melanoma) of over 100 µM.

Cc1cc(=O)oc2c(CN(CCCl)CCCl)c(O)ccc12 gave a TGI (SNB-19 CNS) of over 100 µM, a TGI (SK-MEL-5 melanoma) of over 100 µM and a TGI (SK-MEL-2 melanoma) of over 100 µM. For the same compound, the TGI (UO-31 renal) was over 100 µM, the TGI (OVCAR-3 ovarian) was over 100 µM and the TGI (HOP-62 NSCLC) was over 100 µM. For the same compound, the TGI (K-562 leukemia) was over 100 µM, the TGI (KM12 colon) was over 100 µM and the TGI (NCI-H226 lung) was over 100 µM. It also gave a TGI (HCT-15 colon) of over 100 µM, a TGI (PC-3 prostate) of over 100 µM and a TGI (OVCAR-8 ovarian) of over 100 µM. The TGI (UACC-257 melanoma) was over 100 µM.
